How the values were obtained:
[1] = target: T1, Orexin/Hypocretin receptor type 1 (Homo sapiens, UniProt O43613); test: Agonist activity at OX1R (unknown origin)
T1 sequence (O43613 whole entry): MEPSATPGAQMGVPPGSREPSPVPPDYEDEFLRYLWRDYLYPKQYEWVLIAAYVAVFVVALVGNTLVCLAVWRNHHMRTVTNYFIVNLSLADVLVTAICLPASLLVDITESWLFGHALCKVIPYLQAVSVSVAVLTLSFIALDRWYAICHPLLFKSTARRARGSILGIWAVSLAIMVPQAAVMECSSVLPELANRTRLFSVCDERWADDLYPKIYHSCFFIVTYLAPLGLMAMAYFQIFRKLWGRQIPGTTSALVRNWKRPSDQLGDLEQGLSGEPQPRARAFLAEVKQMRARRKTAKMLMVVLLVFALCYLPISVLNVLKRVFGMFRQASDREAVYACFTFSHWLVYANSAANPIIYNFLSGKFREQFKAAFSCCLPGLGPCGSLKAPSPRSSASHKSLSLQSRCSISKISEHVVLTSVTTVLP

[2] = Ratio of drug concentration in mouse brain to plasma at 40 mg/kg, sc
[3] = Drug concentration in mouse brain at 40 mg/kg, sc; format: ADME, organism-based; conditions: in vivo
Orexin receptor type 2 [4] = target: T2, Orexin receptor type 2 (Mus musculus, UniProt P58308); test: Agonist activity at mouse OX2R expressed in HEK293 cells by AP-TGFalpha reporter assay
T2 sequence (P58308 whole entry): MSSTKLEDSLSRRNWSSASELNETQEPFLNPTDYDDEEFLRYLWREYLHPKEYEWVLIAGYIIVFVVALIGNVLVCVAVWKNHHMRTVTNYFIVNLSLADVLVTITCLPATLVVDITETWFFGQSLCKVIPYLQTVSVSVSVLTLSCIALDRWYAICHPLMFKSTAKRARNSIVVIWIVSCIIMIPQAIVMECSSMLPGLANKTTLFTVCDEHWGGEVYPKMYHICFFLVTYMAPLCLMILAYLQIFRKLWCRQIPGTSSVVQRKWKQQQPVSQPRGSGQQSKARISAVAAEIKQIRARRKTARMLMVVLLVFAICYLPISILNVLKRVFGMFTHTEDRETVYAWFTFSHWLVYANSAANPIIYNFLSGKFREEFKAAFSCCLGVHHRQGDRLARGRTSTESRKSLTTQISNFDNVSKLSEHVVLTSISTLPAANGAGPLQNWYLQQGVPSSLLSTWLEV

[5] = target: T3, Orexin/Hypocretin receptor type 1 (Mus musculus, UniProt P58307); test: Agonist activity at mouse OX1R expressed in HEK293 cells by AP-TGFalpha reporter assay
T3 sequence (P58307 whole entry): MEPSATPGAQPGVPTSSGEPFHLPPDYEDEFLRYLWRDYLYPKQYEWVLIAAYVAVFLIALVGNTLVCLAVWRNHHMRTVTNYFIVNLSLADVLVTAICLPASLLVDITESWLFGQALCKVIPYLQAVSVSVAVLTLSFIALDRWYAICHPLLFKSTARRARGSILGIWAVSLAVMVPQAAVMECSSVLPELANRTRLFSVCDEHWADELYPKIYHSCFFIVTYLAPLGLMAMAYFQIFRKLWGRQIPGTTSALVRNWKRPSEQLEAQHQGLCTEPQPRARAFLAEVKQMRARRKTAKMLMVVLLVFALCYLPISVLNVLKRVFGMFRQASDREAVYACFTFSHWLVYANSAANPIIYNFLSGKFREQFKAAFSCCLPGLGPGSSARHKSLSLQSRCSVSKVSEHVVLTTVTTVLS

[6] = Drug concentration in mouse plasma at 40 mg/kg, sc; format: ADME, organism-based; conditions: in vivo
[7] = target: T1, Orexin/Hypocretin receptor type 1
Description: Agonist activity at human OX1R expressed in CHO-K1 cells assessed as increase in intracellular calcium

Orexin receptor type 2 [8] = target: T4, Orexin receptor type 2 (Homo sapiens, UniProt O43614)
T4 sequence (O43614 whole entry): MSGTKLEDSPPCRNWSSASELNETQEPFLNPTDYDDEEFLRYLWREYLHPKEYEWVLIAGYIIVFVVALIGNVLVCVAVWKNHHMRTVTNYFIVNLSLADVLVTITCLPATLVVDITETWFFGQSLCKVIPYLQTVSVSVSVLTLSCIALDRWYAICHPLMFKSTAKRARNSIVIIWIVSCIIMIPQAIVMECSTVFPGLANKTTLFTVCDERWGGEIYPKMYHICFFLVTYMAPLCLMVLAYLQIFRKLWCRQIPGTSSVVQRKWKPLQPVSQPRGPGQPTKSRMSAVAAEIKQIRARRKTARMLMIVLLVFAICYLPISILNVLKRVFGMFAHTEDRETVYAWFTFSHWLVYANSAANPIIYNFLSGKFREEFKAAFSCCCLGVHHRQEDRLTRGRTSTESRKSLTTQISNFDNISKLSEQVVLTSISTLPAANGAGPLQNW
Description: Agonist activity at human OX2R expressed in CHO-K1 cells assessed as increase in intracellular calcium

Structure (SMILES) | EC50 [7] [nM] | EC50 (Orexin receptor type 2 [8]) [nM] | also measured
COc1ccc(-c2cccc(C(=O)N(C)C)c2)cc1S(=O)(=O)Nc1cccc(CCNC(=O)c2ccccc2-n2nccn2)c1 |  |  | EC50 [1]: 36000 nM
COc1cccc(CC(=O)N(C)[C@@H]2CCCc3ccc(NS(=O)(=O)c4cc(-c5cccc(C(=O)N(C)C)c5)ccc4OC)cc32)c1 |  |  | Kp [2]: 0.002; Ct [3]: 61.1 pmol/g; EC50 (Orexin receptor type 2 [4]): 69 nM; EC50 [5]: 174 nM; concentration [6]: 25 µM
COc1cccc(CC(=O)N(C)[C@H]2CCCc3ccc(NS(=O)(=O)c4cc(/C=C/C(=O)Nc5ccncc5)ccc4OC)cc32)c1 | 3590 |  | 
CCCCNC(=O)/C=C/c1ccc(OC)c(S(=O)(=O)Nc2ccc3c(c2)C(N(C)C(=O)Cc2cccc(OC)c2)CCC3)c1 (centres undefined) | 573 | > 10000 | 
COc1cccc(CC(=O)N(C)C2CCCc3ccc(NS(=O)(=O)c4cc(/C=C/C(N)=O)ccc4OC)cc32)c1 (centres undefined) | 581 |  | 
CNC(=O)/C=C/c1ccc(OC)c(S(=O)(=O)Nc2ccc3c(c2)C(N(C)C(=O)Cc2cccc(OC)c2)CCC3)c1 (centres undefined) | 501 | > 10000 | 
COc1cccc(CC(=O)N(C)C2CCCc3ccc(NS(=O)(=O)c4cc(/C=C/C(=O)NCCN(C)C)ccc4OC)cc32)c1 (centres undefined) | 271 | 2410 | 
COc1cccc(CC(=O)N(C)C2CCCc3ccc(NS(=O)(=O)c4cc(/C=C/C(=O)Nc5ccccn5)ccc4OC)cc32)c1 (centres undefined) | 201 | 955 | 
COc1cccc(CC(=O)N(C)C2CCCc3ccc(NS(=O)(=O)c4cc(CCC(=O)N(C)C)ccc4OC)cc32)c1 (centres undefined) | 1760 |  | 
COc1cccc(CC(=O)N(C)C2CCCc3ccc(NS(=O)(=O)c4cc(/C=C/C(=O)N(C)c5ccncc5)ccc4OC)cc32)c1 (centres undefined) | 187 | 275 | 
COc1cccc(CC(=O)N(C)C2CCCc3ccc(NS(=O)(=O)c4cc(-c5ccccc5)ccc4OC)cc32)c1 (centres undefined) | 5920 | 1290 | 
COc1cccc(CC(=O)N(C)C2CCCc3ccc(NS(=O)(=O)c4cc(/C=C/C(=O)Nc5cccnc5)ccc4OC)cc32)c1 (centres undefined) | 43.4 | 295 | 
COc1cccc(CC(=O)N(C)[C@@H]2CCCc3ccc(NS(=O)(=O)c4cc(/C=C/C(=O)Nc5ccncc5)ccc4OC)cc32)c1 | 747 |  | Ct [3]: 137 pmol/g; EC50 (Orexin receptor type 2 [4]): 457 nM; EC50 [5]: 154 nM; concentration [6]: 32 µM
COc1cccc(CC(=O)N(C)C2CCCc3ccc(NS(=O)(=O)c4cc(/C=C/C(=O)Nc5ccccc5)ccc4OC)cc32)c1 (centres undefined) | 472 | 3290 | 
COc1cccc(CC(=O)N(C)C2CCCc3ccc(NS(=O)(=O)c4cc(CCCC(=O)N(C)C)ccc4OC)cc32)c1 (centres undefined) |  | 1020 | 
COc1cccc(CC(=O)N(C)C2CCCc3ccc(NS(=O)(=O)c4cc(CC(=O)N(C)C)ccc4OC)cc32)c1 (centres undefined) | 1040 |  | 
COc1cccc(CC(=O)N(C)C2CCCc3ccc(NS(=O)(=O)c4cc(/C=C/C(=O)N(C)C)ccc4OC)cc32)c1 (centres undefined) | 1280 | > 10000 | 
COc1cccc(CC(=O)N(C)C2CCCc3ccc(NS(=O)(=O)c4cc(C(=O)N(C)C)ccc4OC)cc32)c1 (centres undefined) | 607 | 146 | 
COCCNC(=O)/C=C/c1ccc(OC)c(S(=O)(=O)Nc2ccc3c(c2)C(N(C)C(=O)Cc2cccc(OC)c2)CCC3)c1 (centres undefined) | 476 | > 10000 | 
COc1cccc(CC(=O)N(C)C2CCCc3ccc(NS(=O)(=O)c4cc(/C=C/C(=O)Nc5ccncc5)ccc4OC)cc32)c1 (racemic) | 15.3 |  | 

From ChEMBL document CHEMBL5380861, “Design and Synthesis of Orexin 1 Receptor-Selective Agonists” (J Med Chem, 2023)
